16 compounds from ChEMBL document CHEMBL2046363, “Discovery and structure-activity relationship of 2,6-disubstituted pyrazines, potent and selective inhibitors of protein kinase CK2” (Bioorg Med Chem Lett, 2012) can be followed below.

Assay [1] in a line: Inhibition of CK2 expressed in HEK293 cells by SRE-luciferase reporter gene assay. Format: cell-based. A general note: A reporter such as luciferase makes a cellular process visible.
The nature of assay [2]: Inhibition of CK2.
Another assay relates to Rattus norvegicus. Description: Antinephritic activity in anti-GBM glomerulonephritis Wistar-Kyoto rat model assessed as improved proteinuria at 15 mg/kg, ip qd measured at day 7 by pyrogallol Red method. The assay is classed as functional, organism-based. Further details: dose 15 mg/kg.
The nature of assay [3]: Selectivity ratio of IC50 for ERK to CK2.
Assay [4] in a line: Selectivity ratio of IC50 for S6 kinase to CK2.
A short description of assay [5]: Selectivity ratio of IC50 for CAMK2 to CK2.
A short description of assay [6]: Selectivity ratio of IC50 for PKA to CK2.
A short description of assay [7]: Selectivity ratio of IC50 for p38beta2 to CK2.
Assay [8] can be described thus: Selectivity ratio of IC50 for PKC to CK2.

Calls of active or inactive are those of the source. The calls are words filed in the database; no cut-off is given here.

As usually defined, the IC50 is the point on the concentration scale where inhibition reaches its midpoint. High values mean a need for much substance, low ones inhibition by little substance. `N#Cc1ccc2cnn(-c3cncc(-n4ccc(CC(=O)O)c4)n3)c2c1`: the IC50 in [1] amounted to 11 µM; in assay [2], 0.022 µM.

Take `O=C(O)Cc1ccn(-c2cncc(-n3ccc4ccccc43)n2)c1`: the IC50 in [2] was found to be 0.1 µM.

For the compound `O=C(O)Cc1cn(-c2cncc(-n3cccc3)n2)c2ccccc12`, the IC50 in [2] worked out at 3 µM.

Consider `O=C(O)Cc1ccn(-c2cncc(-n3cnc4ccccc43)n2)c1`, for which the midpoint of inhibition in [2], the IC50, lay at 0.1 µM.

Regarding `O=C(O)Cc1ccn(-c2cncc(N3CCc4ccccc43)n2)c1`, in assay [2], it took 0.05 µM to reach half-maximal inhibition (IC50).

As to `O=C(O)Cc1ccn(-c2cncc(-n3ncc4ccc(Cl)cc43)n2)c1`, the IC50 turned out to be 4 µM in assay [1] and 0.016 µM in [2].

Regarding `O=C(O)Cc1ccn(-c2cncc(-n3nc(Cl)c4ccccc43)n2)c1`, the IC50 was found to be 30 µM in assay [1] and 0.012 µM in assay [2].

In turn, `O=C(O)Cc1ccn(-c2cncc(-n3ncc4ccccc43)n2)c1` came in with an IC50 in assay [2] of 0.03 µM.

Compound `O=C(O)Cc1cn(-c2cncc(-n3cc(CC(=O)O)c4ccccc43)n2)c2ccccc12` came in with an IC50 in assay [2] of 0.3 µM.

Take `O=C(O)Cc1cn(-c2cncc(-n3ccc4ccccc43)n2)c2ccccc12`: in [2], the midpoint of inhibition, the IC50, lay at 0.5 µM.

Take `CC(C)Nc1ccc2cnn(-c3cncc(-n4ccc(CC(=O)O)c4)n3)c2c1`: the IC50 in [1] came out at 1 µM; in assay [2] it was 0.008 µM.

Take `Nc1nn(-c2cncc(-n3ccc(CC(=O)O)c3)n2)c2ccccc12`: the IC50 in assay [1] stood at 15 µM; in assay [2], 0.008 µM.

Compound `Cc1cc(O)c2c(c1)C(=O)c1cc(O)cc(O)c1C2=O` [EMODIN] displayed an IC50 in [2] of 2 µM.

Consider `Nc1ccc2cnn(-c3cncc(-n4ccc(CC(=O)O)c4)n3)c2c1`, for which, in assay [2], the IC50 stood at 0.025 µM.

Consider `O=C(O)Cc1ccn(-c2cncc(-n3ncc4ccc(NC5CCCC5)cc43)n2)c1`, for which, in the assay with Rattus norvegicus, the outcome was Active. In addition, the IC50 in [1] was 0.9 µM; in assay [2] it was 0.0093 µM. Also, the Ratio IC50 is above 740 in assay [3]; 626 in assay [4]; 162 in [5]; above 740 in assay [6]; above 740 in [7]; above 740 in assay [8].

Take `O=C(O)Cc1c2ccccc2n2c1[nH]c(=O)c1ccccc12`: it took 0.08 µM to reach half-maximal inhibition in [2] (IC50).
